Data set [1] can be described thus: Stress tests in simulated GI tract media (SGF and SIF), observed under PLM. Type of data set: physicochemical. As for the experimental part:
For stress testing in media, solids of aEGCG and the dispersions were suspended in SGFs and SIFs (see Example 6), and the suspensions were observed under polarized light microscope from time to time to look for the evidence of birefringence and extinction (B/E) of the materials, which is the indication of the occurrence of crystallization in a material.
Polarized light microscopy (PLM) was performed using a Leica DM LP microscope with cross polarizer. SEM was performed using a FEI Quanta 200 scanning electron microscope equipped with an Everhart Thornley (ET) detector. Images were collected and analyzed using xTm (v. 2.01) and XT Docu (v. 3.2) software, respectively. The thermogravimetric analyses (TGA) were performed using a TA Instruments Q5000 IR thermogravimetric analyzer. Each sample was placed in an aluminum sample pan and inserted into the TGA furnace. The furnace was first equilibrated at 25° C., and then heated under N2 at a rate of 10° C./min, up to a final temperature of 350° C. Modulated differential scanning calorimetry (mDSC) data were obtained on a TA Instruments Q2920 differential scanning calorimeter equipped with a refrigerated cooling system (RCS). The test was progressed by modulating temperature±0.8° C. every 60 seconds from 0 to 180° C. The reported glass transition temperature (Tg) is obtained from the inflection point of the step change in the reversing heat flow versus temperature curve.
Solids were suspended in media including simulated gastric fluid (SGF) and simulated intestinal fluid (SIF), and observed under PLM from time to time up to 24 hours for evidence of crystallization indicative by the appearance of birefringence/extinctions. Because of the high solubility of aEGCG, more materials were suspended into the media compared with the dispersions.

The conditions of data set [2]: cited from earlier work.
The conditions of data set [3]: values as low as; rodents and humans; cited from earlier work.
A short description of data set [4]: Stress test at about 40° C./75% RH for 11 days. The class given is physicochemical. The protocol:
The physical stability of aEGCG and the four dispersions were evaluated at different conditions including a typical stress condition of 40° C./75% RH for 11 days, and in media of SGF and SIF for 24 h. Table 1 summarizes the visual observations on the materials after they have been stressed at 40° C./75% RH for 11 days. The aEGCG became a hard material after stress, while all the dispersions were particles or soft aggregates.
XRPD patterns were collected with a PANalytical X'Pert PRO MPD diffractometer using an incident beam of Cu radiation produced using an Optix long, fine-focus source. An elliptically graded multilayer mirror was used to focus Cu Kα X-rays through the specimen and onto the detector. Prior to the analysis, a silicon specimen (NIST SRM 640e) was analyzed to verify the observed position of the Si 111 peak is consistent with the NIST-certified position. A specimen of the sample was sandwiched between 3-μm-thick films and analyzed in transmission geometry. A beam-stop, short antiscatter extension, and antiscatter knife edge were used to minimize the background generated by air. Soller slits for the incident and diffracted beams were used to minimize broadening from axial divergence. Diffraction patterns were collected using a scanning position-sensitive detector (X'Celerator) located 240 mm from the specimen and Data Collector software v. 2.2b. […]

Data set [5] can be described thus: Dissolution test in pH 7.4 PBS at 37° C. The class given is physicochemical. The following applies: for Release of EGCG in the first 20 minutes: 20 mg EGCG equivalent in 100 mL; for Visible solids during dissolution test: up to 24 hours. As for the experimental part:
As an initial proposition, the dispersions, aEGCG and cEGCG were modeled with respect to pseudo-second order models according to equation 1 where t is time, Q is cumulative release, and Qe the final release and, and k2 the rate constant of pseudo-second order kinetics.
Dissolution testing was performed in 100 mL of standard phosphate-buffered salines (pH 7.4) at 37° C. in a jacketed beaker. The temperature was precisely controlled by a Julabo Heating Circulator. EGCG concentration in the solution was in-situ monitored via an Ocean Optics USB2000+UV-VIS spectrometer equipped with an RT-2MM Dip Probe. The testing was performed with continuous stirring until all solids were dissolved and the medium was free of observable particles, or up to 24 hours. For early period of dissolution, the data acquisition density was relatively large to capture all sudden changes; while at later periods, the data acquisition frequency was reduced due to slow evolution in the medium. For each material, an equivalency of 20 mg EGCG was tested and the experiment was monitored until all solids were dissolved or up to 24 hours. Based on the dissolution data, all EGCG (˜20 mg) were released into the medium within the period of dissolution tests for all samples.

Data set [6] in a line: Stability of dispersions of varying weight ratios, about 40° C./75% RH/30 days. Type of data set: physicochemical. The protocol: For the four polymers identified, further stress tests were carried out on dispersions with varying weight ratios of EGCG to polymer as set forth in Example 8. In these experiments, stressing was done for 30 days at 75% relative humidity at 40° C. for 30 days. FIGS. 50-63 are the XRPD patterns of the prepared dispersions prior to stressing. FIGS. 75-78 are the XRPD patterns after stressing and these too show the samples to amorphous by XRPD. FIGS. 82, 83, and 85 show a peak indicative of NaCl, which is used in the salt both of the humidity chamber storing the samples. Thus, such a peak is not indicative of any crystalline EGCG in the corresponding dispersions. […] Based on the XRPD results, the post-stressing dispersions were x-ray amorphous (other than the NaCl peaks).
20 capsules of Teavigo™ were broken and the solids were suspended in ˜300 mL HPLC grade water and filtered to remove the solids. The resultant solution was clear with no evidence of solid particles observed. The solution was then dried under N2 purge until water is fully removed based on visual observation. Such generated EGCG solids were directly used for generating amorphous EGCG and solid dispersions.
EGCG solid dispersions were prepared by lyophilization using four polymers including HPMC-AS, HPMC-P, Soluplus®, and cellulose acetate. Individual solutions of polymer (in dioxane) and EGCG (in water) were prepared. The EGCG aqueous solution was added into the polymer-dioxane solution slowly. Additional fresh dioxane were added into the samples followed by vigorous vortexing to reach a clear solution without visible solids or colloids.
For lyophilization, each EGCG/polymer solution was frozen in a cold bath of dry ice/acetone (at a temperature of −78° C.). The sample vial was then kept in a lyophilizer at −30° C. for 1 day, −10° C. for 2 days, 0° C. for 1 day, and then 20° C. for 4 hours. Pure EGCG aqueous solution was lyophilized as well to generate amorphous EGCG (EGCG) as a reference material for comparison with the dispersions. The lyophilized materials are free flowing materials.

Data on three molecules can be found in patent US20200323815A1, “AMORPHOUS DISPERSIONS OF EPIGALLOCATECHIN GALLATE” (AMRI SSCI, LLC, priority 2017, published 2020).

As for `O=C(O[C@@H]1Cc2c(O)cc(O)cc2O[C@@H]1c1cc(O)c(O)c(O)c1)c1cc(O)c(O)c(O)c1` [EGCG, epigallocatechin gallate], in data set [1] (simulated gastric fluid, up to 24 h, B/E = birefringence/extinction, indicates crystallization), the “Observations under PLM in SGF” value is on record as “B/E observed in 15 min”. Further, the “Observations under PLM in SIF” value in data set [1] (simulated intestinal fluid, up to 24 h, B/E = birefringence/extinction, indicates crystallization) is listed as “B/E observed in 15 min”. Moreover, the “Share present in plasma in free form” value in data set [2] (Manach et al. 2005) was 77-90%. In addition, the Improvement in bioavailability in data set [2] (coadministration of piperine, Lambert et al. 2004) was 30%. The Bioavailability in data set [3] is given as 2-5%.
With `O=C(O[C@@H]1Cc2c(O)cc(O)cc2O[C@@H]1c1cc(O)c(O)c(O)c1)c1cc(O)c(O)c(O)c1` [aEGCG, epigallocatechin gallate], in data set [4], the “Visual observation after stress” value is given as “pink hard material, agg” and the “XRPD of post-stress samples” value is recorded as “highly crystalline material”. Besides, the “Time to crystallization in SGF” value in data set [1] (suspended in SGF, PLM) is at most 15 min. Besides, the “Time to crystallization in SIF” value in data set [1] (suspended in SIF, PLM) is at most 15 min. Moreover, in data set [5], the “Release profile (in words)” value is “immediate dissolution”, the “Release of EGCG in the first 20 minutes” value was around 100% and the “Visible solids during dissolution test” value was “dissolved without visible solids”. Also, the “XRPD of post-stressing solids” value in data set [6] (40° C./75% RH, 30 days) is on record as “converted to crystalline EGCG”. Moreover, the Color after stress entry in data set [6] (40° C./75% RH, 30 days, visual observation) is listed as “pink”. The Color as generated entry in data set [6] (before stress, visual observation) is given as “very light pink,”.
Take `O=C(O[C@@H]1Cc2c(O)cc(O)cc2O[C@@H]1c1cc(O)c(O)c(O)c1)c1cc(O)c(O)c(O)c1` [cEGCG, epigallocatechin gallate]: in data set [5], the “Release of EGCG in the first 20 minutes” value was “approximately 93%” and the “Visible solids during dissolution test” value is given as “dissolved without visible solids”.
